Test system: MV-4-11 cells
Assay: Gene expression microarray analysis (Affymetrix PrimeView) and GSEA
Type: cell-based, human
Design: RFU PODN (11730768_x_at) / Fold change /veh PODN (11730768_x_at) / RFU LINC00158 (11744669_a_at) / Fold change /veh LINC00158 (11744669_a_at) / RFU DUSP10 (11751237_a_at) / Fold change /veh DUSP10 (11751237_a_at) / RFU ID3 (11757404_x_at) / Fold change /veh ID3 (11757404_x_at) / RFU PLEKHG5 (11737974_s_at) / Fold change /veh PLEKHG5 (11737974_s_at) / RFU LRRC4B (11730491_at) / Fold change /veh LRRC4B (11730491_at) / RFU GIMAP4 (11747438_a_at) / Fold change /veh GIMAP4 (11747438_a_at) / RFU KRT8 (11758183_x_at) / Fold change /veh KRT8 (11758183_x_at) / RFU CNN1 (11734310_a_at) / Fold change /veh CNN1 (11734310_a_at) / RFU VPS37D (11726825_at) / Fold change /veh VPS37D (11726825_at) / RFU C10orf10 (11716522_x_at) / Fold change /veh C10orf10 (11716522_x_at) / RFU KIR2DL2 /// KIR2DL4 /// KIR2DL5A /// KIR2DL5B /// KIR2DS1 /// KIR2DS2 /// KIR2DS3 /// KIR2DS4 /// KIR3DL3 /// KIR3DL3 /// KIR3DS1 (11738374_at) / Fold change /veh KIR2DL2 /// KIR2DL4 /// KIR2DL5A /// KIR2DL5B /// KIR2DS1 /// KIR2DS2 /// KIR2DS3 /// KIR2DS4 /// KIR3DL3 /// KIR3DL3 /// KIR3DS1 (11738374_at) / RFU C1QL1 (11718748_at) / Fold change /veh C1QL1 (11718748_at) / RFU TMPRSS4 (11747572_a_at) / Fold change /veh TMPRSS4 (11747572_a_at) / RFU HAMP (11756126_x_at) / Fold change /veh HAMP (11756126_x_at) / RFU RNFT2 (11725882_a_at) / Fold change /veh RNFT2 (11725882_a_at) / RFU NR4A2 (11747474_a_at) / Fold change /veh NR4A2 (11747474_a_at) / RFU ABCC12 (11746883_a_at) / Fold change /veh ABCC12 (11746883_a_at) / RFU TMEM136 (11760407_x_at) / Fold change /veh TMEM136 (11760407_x_at) / RFU CLDN22 /// WWC2 (11732394_at) / Fold change /veh CLDN22 /// WWC2 (11732394_at) / RFU HLA-DPB1 (11760878_x_at) / Fold change /veh HLA-DPB1 (11760878_x_at) / RFU SPINT1 (11716480_a_at) / Fold change /veh SPINT1 (11716480_a_at) / RFU GAP43 (11754022_s_at) / Fold change /veh GAP43 (11754022_s_at) / RFU A4GNT (11735810_at) / Fold change /veh A4GNT (11735810_at) / RFU PRB3 (11715151_x_at) / Fold change /veh PRB3 (11715151_x_at) / RFU TUBB4B (11761932_at) / Fold change /veh TUBB4B (11761932_at) / RFU CAPN14 (11732068_a_at) / Fold change /veh CAPN14 (11732068_a_at) / RFU TMCC2 (11721928_a_at) / Fold change /veh TMCC2 (11721928_a_at) / RFU IRGQ (11745062_a_at) / Fold change /veh IRGQ (11745062_a_at) / RFU FAM174B (11720279_a_at) / Fold change /veh FAM174B (11720279_a_at) / RFU TMPRSS4 (11748680_a_at) / Fold change /veh TMPRSS4 (11748680_a_at) / RFU FAM212B (11763350_a_at) / Fold change /veh FAM212B (11763350_a_at) / RFU PLEKHG5 (11743358_a_at) / Fold change /veh PLEKHG5 (11743358_a_at) / RFU ZSCAN30 (11745921_a_at) / Fold change /veh ZSCAN30 (11745921_a_at) / RFU CMKLR1 (11741424_a_at) / Fold change /veh CMKLR1 (11741424_a_at) / RFU LOC101060620 /// MAPK8IP1 (11723275_at) / Fold change /veh LOC101060620 /// MAPK8IP1 (11723275_at) / RFU SPTSSB (11747773_x_at) / Fold change /veh SPTSSB (11747773_x_at) / RFU PRSS12 (11739890_at) / Fold change /veh PRSS12 (11739890_at) / RFU BIN1 (11741810_x_at) / Fold change /veh BIN1 (11741810_x_at) / RFU WNT11 (11732464_a_at) / Fold change /veh WNT11 (11732464_a_at) / RFU C10orf10 (11716521_a_at) / Fold change /veh C10orf10 (11716521_a_at) / RFU C5orf56 (11738089_at) / Fold change /veh C5orf56 (11738089_at) / RFU CYB561 (11721691_x_at) / Fold change /veh CYB561 (11721691_x_at) / RFU ANKRD19P (11752326_a_at) / Fold change /veh ANKRD19P (11752326_a_at) / RFU OR2T12 /// OR2T33 /// OR2T8 (11738714_s_at) / Fold change /veh OR2T12 /// OR2T33 /// OR2T8 (11738714_s_at) / RFU VCAN (11748164_a_at) / Fold change /veh VCAN (11748164_a_at) / RFU JSRP1 (11732532_at) / Fold change /veh JSRP1 (11732532_at) / RFU KRTAP10-11 (11738290_x_at) / Fold change /veh KRTAP10-11 (11738290_x_at) / RFU MYO3A (11730013_a_at) / Fold change /veh MYO3A (11730013_a_at) / RFU EBF3 (11725865_a_at) / Fold change /veh EBF3 (11725865_a_at) / RFU CAMK2N1 (11719241_x_at) / Fold change /veh CAMK2N1 (11719241_x_at) / RFU C5orf56 (11738088_a_at) / Fold change /veh C5orf56 (11738088_a_at) / RFU OLFML3 (11715873_a_at) / Fold change /veh OLFML3 (11715873_a_at) / RFU LOC100653217 /// NTM (11731650_a_at) / Fold change /veh LOC100653217 /// NTM (11731650_a_at) / RFU MAPK11 (11762145_a_at) / Fold change /veh MAPK11 (11762145_a_at) / RFU FIZ1 (11724087_x_at) / Fold change /veh FIZ1 (11724087_x_at) / RFU OASL (11726364_x_at) / Fold change /veh OASL (11726364_x_at) / RFU SOX15 (11748057_x_at) / Fold change /veh SOX15 (11748057_x_at) / RFU CD79A (11719716_a_at) / Fold change /veh CD79A (11719716_a_at) / RFU HIST1H1D (11736915_at) / Fold change /veh HIST1H1D (11736915_at) / RFU CASKIN2 (11723855_a_at) / Fold change /veh CASKIN2 (11723855_a_at) / RFU LOC730098 (11760151_x_at) / Fold change /veh LOC730098 (11760151_x_at) / RFU OR4N2 (11742367_at) / Fold change /veh OR4N2 (11742367_at) / RFU PRRT2 (11749266_a_at) / Fold change /veh PRRT2 (11749266_a_at) / RFU SNX32 (11753110_a_at) / Fold change /veh SNX32 (11753110_a_at) / RFU CDHR5 (11726645_a_at) / Fold change /veh CDHR5 (11726645_a_at) / RFU RCAN1 (11760418_a_at) / Fold change /veh RCAN1 (11760418_a_at) / RFU FAM167A (11723789_a_at) / Fold change /veh FAM167A (11723789_a_at) / RFU FAM26E (11764081_at) / Fold change /veh FAM26E (11764081_at) / RFU ISYNA1 (11749810_s_at) / Fold change /veh ISYNA1 (11749810_s_at) / RFU ACY1 (11761880_at) / Fold change /veh ACY1 (11761880_at) / RFU 11764098_at / Fold change /veh 11764098_at / RFU SAMD14 (11745864_x_at) / Fold change /veh SAMD14 (11745864_x_at) / RFU NPB (11741838_a_at) / Fold change /veh NPB (11741838_a_at) / RFU TMPRSS6 (11731388_a_at) / Fold change /veh TMPRSS6 (11731388_a_at) / RFU KRTAP10-2 (11738614_at) / Fold change /veh KRTAP10-2 (11738614_at) / RFU ARHGAP8 /// PRR5-ARHGAP8 (11727945_x_at) / Fold change /veh ARHGAP8 /// PRR5-ARHGAP8 (11727945_x_at) / RFU KRTAP5-7 /// NADSYN1 (11734609_at) / Fold change /veh KRTAP5-7 /// NADSYN1 (11734609_at) / RFU RASL12 (11751679_a_at) / Fold change /veh RASL12 (11751679_a_at) / RFU CDKN2B (11736163_a_at) / Fold change /veh CDKN2B (11736163_a_at) / RFU PRF1 (11729649_at) / Fold change /veh PRF1 (11729649_at) / RFU, ZNF638 /// ZNF638-IT1 / Fold change vs veh, ZNF638 /// ZNF638-IT1 / RFU, PANK3 / Fold change vs veh, PANK3 / RFU, SH3YL1 / Fold change vs veh, SH3YL1 / RFU, ZEB2 / Fold change vs veh, ZEB2 / RFU, NRIP1 / Fold change vs veh, NRIP1 / RFU, PTTG1IP / Fold change vs veh, PTTG1IP / RFU, CAPN2 / Fold change vs veh, CAPN2 / RFU, MED14 / Fold change vs veh, MED14 / RFU, SNORA58 / Fold change vs veh, SNORA58 / RFU, C1orf63 / Fold change vs veh, C1orf63 / RFU, LRRFIP1 / Fold change vs veh, LRRFIP1 / RFU, NDUFAF7 / Fold change vs veh, NDUFAF7 / RFU, SLC12A2 / Fold change vs veh, SLC12A2 / RFU, IBTK / Fold change vs veh, IBTK / RFU, ESF1 / Fold change vs veh, ESF1 / Fold change vs veh, TMEM50B / RFU, TAOK1 / Fold change vs veh, TAOK1 / RFU, ACBD3 / Fold change vs veh, ACBD3 / RFU, TMA16 / Fold change vs veh, TMA16 / RFU, RWDD3 / Fold change vs veh, RWDD3 / RFU, BCAT1 / Fold change vs veh, BCAT1 / RFU, EDEM3 / Fold change vs veh, EDEM3 / RFU, TMEM33 / Fold change vs veh, TMEM33 / RFU, WDR75 / Fold change vs veh, WDR75 / RFU, AHCTF1 / Fold change vs veh, AHCTF1 / RFU, TFRC / Fold change vs veh, TFRC / RFU, ZDHHC17 / Fold change vs veh, ZDHHC17 / RFU, NOM1 / Fold change vs veh, NOM1 / RFU, ARL8B / Fold change vs veh, ARL8B / RFU, ZBTB11 / Fold change vs veh, ZBTB11 / RFU, TAMM41 / Fold change vs veh, TAMM41 / RFU, KIAA1704 /// LOC100996395 / Fold change vs veh, KIAA1704 /// LOC100996395 / RFU, ING1 / Fold change vs veh, ING1 / RFU, TRMT61B / Fold change vs veh, TRMT61B / RFU, FUBP3 / Fold change vs veh, FUBP3 / RFU, TP53 / Fold change vs veh, TP53 / RFU, TNKS2 / Fold change vs veh, TNKS2 / RFU, ZFP14 / Fold change vs veh, ZFP14 / RFU, ACTR2 / Fold change vs veh, ACTR2 / RFU, PPP3R1 / Fold change vs veh, PPP3R1 / RFU, PIK3R1 / Fold change vs veh, PIK3R1 / RFU, HNRNPA1 / Fold change vs veh, HNRNPA1 / RFU, RNF170 / Fold change vs veh, RNF170 / RFU, ZNF28 / Fold change vs veh, ZNF28 / RFU, RNGTT / Fold change vs veh, RNGTT / RFU, OGT / Fold change vs veh, OGT / RFU, BRD1 / Fold change vs veh, BRD1 / RFU, MARS / Fold change vs veh, MARS / RFU, ZNF655 / Fold change vs veh, ZNF655 / RFU, FAHD1 / Fold change vs veh, FAHD1 / RFU, BDP1 / Fold change vs veh, BDP1 / RFU, LRRCC1 / Fold change vs veh, LRRCC1 / RFU, ARID1A / Fold change vs veh, ARID1A / RFU, ZNF146 / Fold change vs veh, ZNF146 / RFU, ZNF330 / Fold change vs veh, ZNF330 / RFU, GPN3 / Fold change vs veh, GPN3 / RFU, C9orf123 / Fold change vs veh, C9orf123 / RFU, N4BP2L2 / Fold change vs veh, N4BP2L2 / RFU, ARFIP1 / Fold change vs veh, ARFIP1 / RFU, FAM179B / Fold change vs veh, FAM179B / RFU, BCL10 / Fold change vs veh, BCL10 / RFU, UHRF1BP1L / Fold change vs veh, UHRF1BP1L / RFU, BET1 / Fold change vs veh, BET1 / RFU, CNOT2 / Fold change vs veh, CNOT2 / RFU, ZNF268 / Fold change vs veh, ZNF268 / Fold change vs veh, ZNF507 / RFU, DGCR2 / Fold change vs veh, DGCR2 / RFU, WDSUB1 / Fold change vs veh, WDSUB1 / Fold change vs veh, HSP90B1 /// MIR3652 / RFU, ADSS / Fold change vs veh, ADSS / RFU, GK / Fold change vs veh, GK / RFU, ZNF148 / Fold change vs veh, ZNF148 / RFU, TAF9 / Fold change vs veh, TAF9 / RFU, SLC1A5 / Fold change vs veh, SLC1A5 / RFU, SLMO2 / Fold change vs veh, SLMO2 / RFU, ABCC4 / Fold change vs veh, ABCC4 / RFU, LOC101060439 /// RAP1B / Fold change vs veh, LOC101060439 /// RAP1B / RFU, RFX7 / Fold change vs veh, RFX7 / RFU, GTPBP10 / Fold change vs veh, GTPBP10 / RFU, CNEP1R1 / Fold change vs veh, CNEP1R1 / RFU, BIVM-ERCC5 /// ERCC5 / Fold change vs veh, BIVM-ERCC5 /// ERCC5 / RFU, ILF3 / Fold change vs veh, ILF3 / RFU 11762660_at / Fold change /veh 11762660_at / RFU VCAN (11757783_s_at) / Fold change /veh VCAN (11757783_s_at) / RFU DDX43 (11728927_at) / Fold change /veh DDX43 (11728927_at) / RFU KRT8 (11758188_x_at) / Fold change /veh KRT8 (11758188_x_at) / RFU NKD1 (11759106_at) / Fold change /veh NKD1 (11759106_at) / RFU SRD5A1 (11742802_a_at) / Fold change /veh SRD5A1 (11742802_a_at) / RFU TPSAB1 /// TPSB2 (11721975_s_at) / Fold change /veh TPSAB1 /// TPSB2 (11721975_s_at) / RFU GSTM3 (11746129_a_at) / Fold change /veh GSTM3 (11746129_a_at) / RFU IL23R (11737362_x_at) / Fold change /veh IL23R (11737362_x_at) / RFU TMEM51 (11727254_a_at) / Fold change /veh TMEM51 (11727254_a_at) / RFU PIWIL2 (11732686_x_at) / Fold change /veh PIWIL2 (11732686_x_at) / RFU ORM1 (11744905_x_at) / Fold change /veh ORM1 (11744905_x_at) / RFU CCDC152 (11743942_at) / Fold change /veh CCDC152 (11743942_at) / RFU ECM1 (11717891_a_at) / Fold change /veh ECM1 (11717891_a_at) / RFU IL23R (11748794_a_at) / Fold change /veh IL23R (11748794_a_at) / RFU TNFAIP8L3 (11732012_x_at) / Fold change /veh TNFAIP8L3 (11732012_x_at) / RFU MBOAT4 (11741988_at) / Fold change /veh MBOAT4 (11741988_at) / RFU 11764193_at / Fold change /veh 11764193_at / RFU TMEM53 (11763286_at) / Fold change /veh TMEM53 (11763286_at) / RFU MAGEB2 (11727129_at) / Fold change /veh MAGEB2 (11727129_at) / RFU TMEM200A (11744735_a_at) / Fold change /veh TMEM200A (11744735_a_at) / RFU CCDC152 (11751479_a_at) / Fold change /veh CCDC152 (11751479_a_at) / RFU FAM211A (11726209_a_at) / Fold change /veh FAM211A (11726209_a_at) / RFU RGS16 (11746705_a_at) / Fold change /veh RGS16 (11746705_a_at) / RFU VCAN (11755009_s_at) / Fold change /veh VCAN (11755009_s_at) / RFU RHOB (11743442_s_at) / Fold change /veh RHOB (11743442_s_at) / RFU RGS16 (11720943_a_at) / Fold change /veh RGS16 (11720943_a_at) / RFU RGS16 (11720944_at) / Fold change /veh RGS16 (11720944_at) / RFU, VPS4B / Fold change vs veh, VPS4B / RFU, CREB1 / Fold change vs veh, CREB1 / RFU, DNAJC13 / Fold change vs veh, DNAJC13 / RFU, GNAQ / Fold change vs veh, GNAQ / RFU, CDK5R1 / Fold change vs veh, CDK5R1 / RFU, ZRANB3 / Fold change vs veh, ZRANB3 / RFU, CUL4A / Fold change vs veh, CUL4A / RFU, CCNY / Fold change vs veh, CCNY / RFU, UFL1 / Fold change vs veh, UFL1 / RFU, COG3 / Fold change vs veh, COG3 / RFU, DIAPH2 / Fold change vs veh, DIAPH2 / RFU, SKA2 / Fold change vs veh, SKA2 / RFU, AFF3 / Fold change vs veh, AFF3 / RFU, LMF1 / Fold change vs veh, LMF1 / RFU, IPO11 / Fold change vs veh, IPO11 / RFU, DFFB / Fold change vs veh, DFFB / RFU, FOXP1 / Fold change vs veh, FOXP1 / RFU, CARD8 / Fold change vs veh, CARD8 / RFU, STRN3 / Fold change vs veh, STRN3 / RFU, ADK / Fold change vs veh, ADK / RFU, RASSF2 / Fold change vs veh, RASSF2 / RFU, WIPF1 / Fold change vs veh, WIPF1 / RFU, LARP1B / Fold change vs veh, LARP1B / RFU, RASA1 / Fold change vs veh, RASA1 / RFU, RB1 / Fold change vs veh, RB1 / RFU, PPFIA1 / Fold change vs veh, PPFIA1 / RFU, MAT2A / Fold change vs veh, MAT2A / RFU, CCT5 / Fold change vs veh, CCT5 / RFU, WDR92 / Fold change vs veh, WDR92 / RFU, CUX1 / Fold change vs veh, CUX1 / RFU, TTC7A / Fold change vs veh, TTC7A / RFU, TMEM135 / Fold change vs veh, TMEM135 / RFU, DEPTOR / Fold change vs veh, DEPTOR / RFU, CPM / Fold change vs veh, CPM / RFU, DNAJB6 / Fold change vs veh, DNAJB6 / RFU, CACNA2D3 / Fold change vs veh, CACNA2D3 / RFU, DTX4 / Fold change vs veh, DTX4 / RFU, TFCP2 / Fold change vs veh, TFCP2 / RFU, GMCL1 /// GMCL1P1 / Fold change vs veh, GMCL1 /// GMCL1P1 / RFU, AEBP2 / Fold change vs veh, AEBP2 / RFU, SNHG1 /// SNORD22 /// SNORD25 /// SNORD26 /// SNORD27 /// SNORD28 /// SNORD29 /// SNORD31 / Fold change vs veh, SNHG1 /// SNORD22 /// SNORD25 /// SNORD26 /// SNORD27 /// SNORD28 /// SNORD29 /// SNORD31 / Fold change (Aza/veh), C12orf56 (ProbeSet 11735607_a_at) / Fold change (ACY-1035/veh), C12orf56 (ProbeSet 11735607_a_at) / Fold change (Aza/veh), FGFR1OP (ProbeSet 11751329_s_at) / Fold change (ACY-1035/veh), FGFR1OP (ProbeSet 11751329_s_at) / Fold change (Aza/veh), VPS36 (ProbeSet 11739960_a_at) / Fold change (ACY-1035/veh), VPS36 (ProbeSet 11739960_a_at) / RFU SYPL1 (11715823_x_at) / Fold change /veh SYPL1 (11715823_x_at) / RFU IGFBP7 (11715501_s_at) / Fold change /veh IGFBP7 (11715501_s_at) / RFU REEP3 (11722064_at) / Fold change /veh REEP3 (11722064_at) / RFU IGLL1 (11728026_x_at) / Fold change /veh IGLL1 (11728026_x_at): dose or concentration left out as unconfirmed
Details: ProbeSet 11740011_at; LIST B

In the case of Nc1ccc(-c2cccs2)cc1NC(=O)c1ccc2c(c1)cc(C1CC1)n2CCN1CCOCC1 [ACY-1035], the “Fold change vs veh, ZFP14” value is reported as 1.03.
